Measurements published in patent US3981997A, “Analgesic compositions comprising 1H- or respectively 2H-indazolone-3 (β-morpholino-alkoxy) compounds” (Temmler Werke-Vereinigte Chemische Fabriken, priority 1970, dated 1976).
Like-named read-outs stand apart in the source and are kept apart here.

Legend:
mouse [1] = assay: animal or person; conditions: for ED50: Mus musculus; for Hot plate: relative therapeutic index (Th.I.) / Writhing Test: relative therapeutic index (Th.I.) / Writhing Test: mean effective dosage (ED50) / Hot plate: mean effective dosage (ED50): mouse; for Writhing Test: mean effective dosage (ED50) / Hot plate: mean effective dosage (ED50): relative to effective substance; for Writhing Test: mean effective dosage (ED50): 30 min; for Hot plate: mean effective dosage (ED50): 60 min
Description: The mice were kept without food during a period of 18 hours prior to the commencement of the tests. The test substances were administered orally in a methyl-cellulose-mucic (slime) by means of a probe. The observation period for the toxicity tests was 7 days. […] The pre-medication periods were 60 minutes in the first test arrangements. […] The percentage of the non-reacting animals was used to compute the ED50. […] Since the reaction times of the control group animals were log-normally distributed an analgetic effect was assumed in the treated animals if the logarithm of the reaction time of an animal was above the mean value range plus twice the standard deviation of the control group animals.

[2] = Acute oral toxicity in the mouse (LD50, 7-day observation); assay type: in vivo; conditions: in vivo, read-out: Mean lethal dosage (LD50)
[3] = Acute oral toxicity in the rat (LD50); conditions: in vivo
rat [4] = assay: animal or person; assay type: in vivo
Description: According to Table II and with reference to the method described by A. HERZ (Naunyn-Schmiedeberg's Arch. Pharmakol., 242, 414, 1962) with rats by electrical stimulation of the root of the tail by means of continuously increasing the current a threshold of pain was determined which threshold was characterized in that the animals commenced to squeak in synchronism with the stimulation. When maintaining the selected test conditions these threshold values indicated as percent variations against the initial values prior to the treatment remained practically constant over a period of several hours in a test with control animals. Since these values are furthermore also normally distributed it is possible to quantitatively determine analgetic effects by determining the number of animals whose threshold values exceed during a test run the range defined by the mean value plus twice the standard deviation.
To determine the mean effective dosage ED50) determinations of the threshold of pain were made in 30 minute intervals with groups of 12 female rats each, each rat having a body weight from 160 to 360 grams, and these determinations were made prior to and after the treatment with at least 3 doses of the test substances which were administered orally in a 2 % methyl-cellulose-mucic by means of a probe. […] In this manner, not only the intensity but also the duration of the effect were taken into consideration when determining the ED50 since the analgesia must be sustained for at least 90 minutes.

rat [5] = assay type: in vivo
[6] = Overall analgetic effect and compatability [sic]; conditions: in vivo
mouse [7] = assay: Acute oral toxicity in the mouse (LD50, 7-day observation); assay type: in vivo; conditions: Table I, relative to effective substance, 10080 min
[8] = po, 0.5 h, read-out: Writhing Test: mean effective dosage (ED50)
[9] = po, 1 h, read-out: Hot plate: mean effective dosage (ED50)
[10] = Table IV, rat, oral, read-out: Mean effective dosage (ED50), electrical stimulation of root of the tail (HERZ)
[11] = Table IV, oral, LD10/ED90, relative to aminophenazone = 1.00
[12] = Table I, oral, LD10/ED90, relative to aminophenazone = 1,00
[13] = Table I, relative to effective substance
[14] = po, Table II, rat, p.o., relative to effective substance, read-out: Mean effective dosage (ED50), analgetic effect on rats

For C1CCc2c(n[nH]c2OCCN2CCOCC2)C1 [3-(β-morpholino-ethoxy)-4,5,6,7-tetrahydro-2H-indazole], the ED50 (mouse [1]; [8]) was 94 mg/kg, the ED50 (mouse [1]; [9]) was 540 mg/kg and the “Hot plate: relative therapeutic index (Th.I.)” value (mouse [1]; in vivo, po) was 2.67. For the same molecule, the “Writhing Test: relative therapeutic index (Th.I.)” value (mouse [1]; in vivo, po) was 2.07, the LD50 at 168 h ([2]; Table III) was 1720 mg/kg and the LD50 [3] was 1600 mg/kg. The ED50 (rat [4]; [10]) was 143 mg/kg and the relative therapeutic index (rat [5]; [11]) was 1.62.
In the case of COc1ccc2c3c1O[C@H]1[C@@H](O)C=C[C@H]4[C@@H](C2)N(C)CC[C@@]341 [codeine phosphate], the ED50 (mouse [1]; [8]) is reported as 14 mg/kg, the ED50 (mouse [1]; [9]) is reported as 115 mg/kg and the “Hot plate: relative therapeutic index (Th.I.)” value (mouse [1]; [12]) is reported as 1,49. For the same molecule, the “Writhing Test: relative therapeutic index (Th.I.)” value (mouse [1]; [12]) was 1,92, the LD50 at 168 h [2, 13] was 265 mg/kg and the ED50 (rat [4]; Rattus norvegicus, po, read-out: Mean effective dosage (ED50), analgetic effect on rats) was 22 mg/kg. The “Relative effectivity, relative to aminophenazone = 1.00” value (shortened to “Relative effectivity”) (rat [4]; Table II, rat, p.o.) was 10.50.
With c1ccc2c(OCCN3CCOCC3)n[nH]c2c1 [3-(β-morpholino-ethoxy)-1H-indazole] the “analgetic activity (in words)” value [6] was “Analgetically particularly active”.
For Cc1c(N(C)C)c(=O)n(-c2ccccc2)n1C [aminophenazone], the ED50 (mouse [1]; [8]) was 50 mg/kg, the ED50 (mouse [1]; [9]) was 283 mg/kg and the “Writhing Test: mean effective dosage (ED50)” value (“Writhing Test … (ED50)” below) (mouse [1]; Table I, oral) was 50 mg/kg body weight. The “Hot plate: mean effective dosage (ED50)” value (mouse [1]; Table I, oral) was 283 mg/kg body weight, the “Hot plate: relative therapeutic index (Th.I.)” value (mouse [1]; [12]) was 1,00 and the “Writhing Test: relative therapeutic index (Th.I.)” value (mouse [1]; [12]) was 1,00. The “Hot plate: relative therapeutic index (Th.I.)” value (mouse [1]; in vivo, po) was 1.00, the “Writhing Test: relative therapeutic index (Th.I.)” value (mouse [1]; in vivo, po) was 1.00 and the “Mean lethal dosage (LD50)” value (mouse [7]) was 550 mg/kg body weight. For the same molecule, the LD50 at 168 h ([2]; Table III) was 550 mg/kg, the LD50 [3] was 1350 mg/kg and the “Relative effectivity” value (rat [4]; Table II, rat, p.o.) was 1.00. The ED50 (rat [4]; [10]) was 229 mg/kg and the relative therapeutic index (rat [5]; in vivo, po) was 1.00.
For Br.C1CCc2c(n[nH]c2OCCN2CCOCC2)C1 [3-(β-morpholino-ethoxy)-4,5,6,7-tetrahydro-2H-indazole-hydrobromide], the “analgetic activity (in words)” value [6] was “Analgetically particularly active”.
With CCOc1ccc(NC(C)=O)cc1 [phenacetine] the ED50 (mouse [1]; [8]) was 107 mg/kg, the ED50 (mouse [1]; [9]) was 530 mg/kg and the “Writhing Test … (ED50)” value (mouse [1]; Table I, oral) was 107 mg/kg body weight. The “Hot plate: mean effective dosage (ED50)” value (mouse [1]; Table I, oral) was 530 mg/kg body weight, the “Hot plate: relative therapeutic index (Th.I.)” value (mouse [1]; [12]) was 1,71 and the “Writhing Test: relative therapeutic index (Th.I.)” value (mouse [1]; [12]) was 0,66. For the same molecule, the “Hot plate: relative therapeutic index (Th.I.)” value (mouse [1]; in vivo, po) was 1.93, the “Writhing Test: relative therapeutic index (Th.I.)” value (mouse [1]; in vivo, po) was 0.74 and the “Mean lethal dosage (LD50)” value (mouse [7]) was 1250 mg/kg body weight. For the same molecule, the LD50 at 168 h ([2]; Table III) was 1250 mg/kg, the “Relative effectivity” value (rat [4]; Table II, rat, p.o.) was 1.86 and the ED50 (rat [4]; [14]) was 123 mg/kg.
In the case of c1ccc2c(OCCCN3CCOCC3)n[nH]c2c1 [3-(γ-morpholino-propoxy)-1H-indazole], the “analgetic activity (in words)” value [6] is reported as “Analgetically particularly active”.
In the case of CC(=O)Oc1ccccc1C(=O)O [acetylsalicylate], the ED50 (mouse [1]; [8]) is reported as 107 mg/kg, the ED50 (mouse [1]; [9]) is reported as 500 mg/kg and the “Writhing Test … (ED50)” value (mouse [1]; Table I, oral) is reported as 107 mg/kg body weight. The “Hot plate: mean effective dosage (ED50)” value (mouse [1]; Table I, oral) was 500 mg/kg body weight, the “Hot plate: relative therapeutic index (Th.I.)” value (mouse [1]; [12]) was 1,67 and the “Writhing Test: relative therapeutic index (Th.I.)” value (mouse [1]; [12]) was 0,80. The “Hot plate: relative therapeutic index (Th.I.)” value (mouse [1]; in vivo, po) was 1.88, the “Writhing Test: relative therapeutic index (Th.I.)” value (mouse [1]; in vivo, po) was 0.91 and the “Mean lethal dosage (LD50)” value (mouse [7]) was 835 mg/kg body weight. For the same molecule, the LD50 at 168 h ([2]; Table III) was 835 mg/kg, the LD50 [3] was 1400 mg/kg and the “Relative effectivity” value (rat [4]; Table II, rat, p.o.) was 0.67. The ED50 (rat [4]; [10]) was 340 mg/kg and the relative therapeutic index (rat [5]; [11]) was 0.28.
With Br.c1ccc2c(OCCN3CCOCC3)n[nH]c2c1 [3-(β-morpholino-ethoxy)-1H-indazole-hydrobromide] the ED50 (mouse [1]; [8]) was 46 mg/kg, the ED50 (mouse [1]; [9]) was 142 mg/kg and the “Hot plate: relative therapeutic index (Th.I.)” value (mouse [1]; [12]) was 3,53. For the same molecule, the “Writhing Test: relative therapeutic index (Th.I.)” value (mouse [1]; [12]) was 1,30, the LD50 at 168 h [2, 13] was 615 mg/kg and the “Relative effectivity” value (rat [4]; Table II, rat, p.o.) was 6.84. The ED50 (rat [4]; [14]) was 34 mg/kg and the “analgetic activity (in words)” value [6] was “Analgetically particularly active”.
